# Reference: US5645995A, “Methods for diagnosing an increased risk for breast or ovarian cancer” (Baylor College of Medicine, priority 1996, dated 1997)
# Positions count from the first letter of the chain named.
# What was measured:
# [1] = target: T1, mutant human progesterone receptor (valine to leucine at amino acid 660) (Homo sapiens, UniProt P06401, V660L); assay: Hormone-binding Whole Cell Assay with Scatchard analysis, COS cells expressing mutant receptor; settings: COS cells infected with 250 ng receptor DNA, 50-6400 pM [3H]R5020 overnight, Scatchard analysis (FIG. 7B), read-out: dissociation constant
# T1 construct: expressed in transfected cells; host or cells: COS cells (no endogenous progesterone receptor), pcDNAI/Amp vector
# T1 sequence (P06401 1-933 V660L): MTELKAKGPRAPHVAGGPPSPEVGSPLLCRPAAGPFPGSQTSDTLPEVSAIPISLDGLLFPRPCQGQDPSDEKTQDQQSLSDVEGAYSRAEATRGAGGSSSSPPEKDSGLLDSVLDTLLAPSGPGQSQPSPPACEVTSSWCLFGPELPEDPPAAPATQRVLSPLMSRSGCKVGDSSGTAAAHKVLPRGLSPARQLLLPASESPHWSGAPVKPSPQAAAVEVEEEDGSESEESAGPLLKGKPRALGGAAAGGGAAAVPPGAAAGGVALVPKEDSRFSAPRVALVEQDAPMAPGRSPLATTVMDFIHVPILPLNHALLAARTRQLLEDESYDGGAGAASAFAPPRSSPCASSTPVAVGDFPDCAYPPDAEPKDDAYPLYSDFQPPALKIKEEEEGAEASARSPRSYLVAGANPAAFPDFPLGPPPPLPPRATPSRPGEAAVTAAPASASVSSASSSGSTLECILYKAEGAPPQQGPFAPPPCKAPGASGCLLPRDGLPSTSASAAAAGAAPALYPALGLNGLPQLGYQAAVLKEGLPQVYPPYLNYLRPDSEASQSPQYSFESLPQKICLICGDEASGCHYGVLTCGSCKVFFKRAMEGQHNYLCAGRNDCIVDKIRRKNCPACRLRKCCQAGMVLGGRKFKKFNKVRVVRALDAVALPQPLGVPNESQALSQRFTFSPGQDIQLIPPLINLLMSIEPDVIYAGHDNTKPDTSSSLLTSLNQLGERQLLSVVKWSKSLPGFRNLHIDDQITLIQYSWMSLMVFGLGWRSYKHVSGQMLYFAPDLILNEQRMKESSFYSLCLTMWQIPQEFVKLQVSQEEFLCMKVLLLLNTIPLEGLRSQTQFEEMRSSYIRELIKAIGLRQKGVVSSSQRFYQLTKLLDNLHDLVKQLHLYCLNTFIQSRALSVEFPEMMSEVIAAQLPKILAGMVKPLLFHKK
# Protocol: (§1) To determine whether the increase in transcriptional activity found above was due to changes in hormone-binding affinity, hormone binding affinity was measured in a Whole Cell Assay, as described by Bai et al, Mol. Endo., 8(11):1465-1473 (1994), using DNA encoding both the mutant and wild-type progesterone receptor proteins.
# (§2) More specifically, COS cells were infected with 250 ng of either mutant or wild-type receptor DNA, as described above, and the infected cells were incubated overnight in DME containing 5.0% (v/v) fetal calf serum and 50-6400 pM of [^3 H]R5020 (DuPont NEN, NET-555) before harvesting. Next, the harvested cells were subjected to ethanol extraction, and bound hormone was measured by CPM counting of the extracts.
# [2] = target: T2, wild-type human progesterone receptor (Homo sapiens, UniProt P06401); assay: Hormone-binding Whole Cell Assay with Scatchard analysis, COS cells expressing wild-type receptor; settings: COS cells infected with 250 ng receptor DNA, 50-6400 pM [3H]R5020 overnight, Scatchard analysis (FIG. 7B), read-out: dissociation constant
# T2 construct: expressed in transfected cells; host or cells: COS cells (no endogenous progesterone receptor), pcDNAI/Amp vector
# T2 sequence (P06401 1-933): T1 sequence (P06401 1-933 V660L) with L660V
# Protocol: as §1, §2
structure (smiles),measurement,setting,value
CCC(=O)[C@@]1(C)CC[C@H]2[C@@H]3CCC4=CC(=O)CCC4=C3CC[C@@]21C [R5020],Kd,[1],0.25 nM
same,Kd,[2],0.25 nM
